The target in one assay is T1, hP2X (Homo sapiens, UniProt P51575).
T1 construct: expressed in transfected cells; host or cells: Xenopus oocytes injected with in vitro transcribed RNA
T1 sequence (P51575 1-399): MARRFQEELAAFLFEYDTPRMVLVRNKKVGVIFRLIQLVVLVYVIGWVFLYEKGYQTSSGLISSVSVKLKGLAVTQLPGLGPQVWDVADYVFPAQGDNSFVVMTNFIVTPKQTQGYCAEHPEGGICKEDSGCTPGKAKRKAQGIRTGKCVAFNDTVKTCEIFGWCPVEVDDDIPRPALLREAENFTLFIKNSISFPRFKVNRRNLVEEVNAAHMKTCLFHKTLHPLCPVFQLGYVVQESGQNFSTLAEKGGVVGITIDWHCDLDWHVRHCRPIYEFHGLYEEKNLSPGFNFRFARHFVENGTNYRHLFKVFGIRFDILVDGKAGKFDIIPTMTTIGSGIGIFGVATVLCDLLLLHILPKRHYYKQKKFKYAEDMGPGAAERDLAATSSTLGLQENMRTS
In words: inward currents evoked by purinoceptor agonists in Xenopus oocytes expressing hP2X. The format is cell-based. The method, then:
Human urinary bladder P2X cDNA, subcloned into the pBKCMV expression vector, was linearized with Notl, and transcribed in vitro with T3 polymerase in the presence of cap analogue m7G(5')ppp(5')G. Defolliculated Xenopus oocytes (Bertrand et al, Electrophysiology of neuronal nicotinic acetylcholine receptors expressed in Xenopus oocytes following nuclear injection of genes or cDNAs Meth Neurosci 4: 174-193 (1991)) were injected with 50 ng of human P2X in vitro transcribed RNA, and incubated at 18° C. for 2-6 days in the ND96 solution (mM): NaCl96, KCl2, MgCl2 1, CaCl2 2, sodium pyruvate 5, HEPES 5, ph 7.6-7.5, penicillin (10 U/ml), and streptomycin (10 μg/ml).
Oocytes were placed in a 1 ml chamber and superfused at 2-3 ml/min with ND96 solution with 0.1 mM BaCl2 replacing the 2 mM CaCl2 to prevent activation of endogenous calcium-activated chloride currents (Barish, A transient calcium-dependent chloride current in the immature Xenopus oocytes J Physiol 342: 309-325 (1983)). Currents were measured using a two-electrode voltage-clamp amplifier (Geneclamp Axon Instruments)at a holding potential of -60 mV. Microelectrodes were filled with 3 M KCl (0.5-2 M.OMEGA.). Data were collected using PClamp software (Axon Instruments). […] Antagonists were applied both in the superfusate and together with ATP in the U-tube solution.
Concentration response curves for purinoceptor agonists were fitted with a Hill slope of 1. […] Data are presented throughout as mean ± SEM for a given number of oocytes.

The subject of assay [1] is non-transfected CHO cells. In words: electrophysiological recording in non-transfected CHO cells (control). The format is cell-based, chinese hamster. The settings on record: up to 30 μM; 45 of 45 cells. The source says:
CHO cells were stably transfected by a method used for other ion channels (Claudio, Meth. Enzymol. 207 391-408 (1992)). Transfection was confirmed by a) electro-physiological recording and b) radioligand binding. […] [^3 H]αβmethyleneATP binding was more than 600 cpm per million transfected cells with less than 80 cpm nonspecific binding.

In assay [2] the target is T2, rat vas/human bladder P2X cDNA clone (Homo sapiens, UniProt P51575).
T2 construct: expressed in transfected cells; host or cells: HEK293 cells (oocytes are also named for the functional characterisation)
T2 sequence (P51575 1-399): T1 sequence (P51575 1-399)
In words: functional properties of cloned P2X receptors (electrical recordings): bladder. Type of assay: cell-based. The procedure:
DNA concentration used was 1 mg/2 ml medium placed into a 35 mm petri dish containing four 11 mm diameter coverslips on which HEK cells were placed at 10,000 cells per coverslip. […] Currents were recorded from HEK 293 cells using whole-cell recording methods and the AXOPATCH™ 200 amplifier (Axon Instruments); patch pipettes (5 M.OMEGA.) contained (mM) Cs or K aspartate 140, NaCl 5, EGTA 11, HEPES 5. […] All recordings performed at room temperature. Data acquisition and analysis were performed using pCLAMP™ and AXOGRAPH™ software (Axon Instruments). […] ATP was applied by U-tube typically for 1 s; data was sampled at 5 kHz in 2 s segments beginning 300 ms prior to onset of agonist (ATP) application and filtered at 1 kHz.

The mark [3] stands for this setting: ATP higher concentrations (1 μM).

Molecules are shown by their SMILES.

As for `Nc1ncnc2c1ncn2[C@@H]1O[C@H](COP(=O)([O-])OP(=O)([O-])OP(=O)([O-])[O-])[C@@H](O)[C@H]1O.[Mg+2].[Mg+2]` [ATP, adenosine 5'-triphosphate magnesium salt], the “response to repeated application” value on hP2X (100 μM ATP for 5 s every 10 min) is reported as “reproducible inward currents”. Further, the “reversal of current on washout” value at hP2X (ATP) is “returned to control values on washout”. The “time over which responses developed” value at hP2X (ATP 30-300 nM) fell in the range of 3 to 5 s. Also, at hP2X (setting [3]), the “response after 5 s of continued application, of the peak amplitude” value is recorded as 40-60 and the “time to peak of response” value was in the range of 1 to 1.5 s. Also, at hP2X (ATP up to 1 mM for 5 s every 10 mins), the “variation in peak amplitude on repeated application” value was less than 10%. Further, on hP2X (ATP, 2MeSATP and 2-chloro-ATP), the “comparison of concentration-effect curves” value was “superimposable”. Moreover, on hP2X (oocytes expressing hP2X), the “agonist profile (rank order)” value is on record as 2MeSATP≥ATP>α,β,-meATP. The activation at 10 µM on hP2X (read-out: response to 10 μM ATP, % of peak response to ATP) is approximately 90%. In assay [1], the “effect in non-transfected cells” value is given as “no effect in 45 of 45 non-transfected cells”. Moreover, the EC50 in assay [2] stood at 700 nM.

Broadly, the EC50 is the concentration at which the effect is half-maximal. A low value points to an effect from little substance.

The values above are taken from US5985603A, “P2x receptor DNA and protein sequence” (Glaxo Group Limited, priority 1994, dated 1999).
